# Measured values published in patent US7183267B2, “β-lactamase inhibitors and methods of use thereof” (priority 2003, dated 2007).
# Columns and labels:
# [1] = tested on: methicillin resistant S. aureus from Stanford University Hospital (MRSA-SU); experiment: MIC assay, broth microdilution, MRSA-SU; type: cell-based; settings: Staphylococcus aureus
# Source text: (2) methicillin resistant S. aureus from Stanford University Hospital Clinical Microbiology/Virology Laboratory (MRSA-SU). […] Such Staphylococci are also resistant to all penicillins, and all cephalosporins, in addition to all β-lactamase inhibitor combinations (including ampicillin/sulbactarn, amoxicillin/clavulanic acid, piperacillin/tazobactam), imipenem, and meropenem; and
# The strains were processed according to procedures recommended by ATCC, or procedures that are routinely used. Single colonies of each organism were picked for purification to generate pure working cultures. Prior to each experiment each strain was subcultured on a fresh Mueller-Hinton agar plate (MHA).
# Inocula for the MIC assays were prepared by transferring a tiny portion of one colony from a MHA plate to 2 ml of Mueller-Hinton broth (MHB) such that the estimated cell density was about 10^7 colony forming unit (CFU)/ml. This cell suspension was then further diluted 10-fold (to 10^6 CFU/ml) by transferring the 2 ml cell suspension to 18 ml of MHB. Addition of 50 μl of this dilute cell suspension to 50 μl of growth medium yielded the desired cell density, namely about 5×10^4 CFU/well, or 5×10^5 CFU/ml.
# The MIC value of oxacillin was determined using the broth microdilution procedure recommended by the National Committee of Clinical Laboratory Standards (NCCLS, 2000).
# The MIC experiments were performed in duplicate in 96-well microtiter plates using MHB. A stock solution of 2.6 mg/0.5 ml was prepared in dimethylsulfoxide (DMSO). A total of 8 two-fold serial dilutions were made with DMSO. Initial oxacillin doses used were (μg/ml): 64, 32, 16, 8, 4, 2, 1, and 0.5. Doses were adjusted in the confirmatory experiment, if needed, in order to establish an actual MIC value.
# (§1) To each well of a 96 well microtiter plate was added 47.5 μl of MHB. A volume of 2.5 μl of each dilution of oxacillin was then transferred to appropriate wells containing the medium. All wells, except the sterility control wells, were then inoculated with 50 μl of a diluted cell suspension to give a final volume of 100 μl and a final cell density of 5×10^4 CFU/well. The volume in the sterility control wells was adjusted to 100 μl with MHB. A sterile pipette tip was used to mix the contents of each well (one tip was used going from the low to the high concentration in the same column). The microtiter plates were covered with the lids and were placed in large Stratagene Big Blue plates (Cat. # 400041). Four large kimwipes moistened with tap water were placed near the edges of the Stratagene plates to prevent evaporation of the medium. The microtiter plates were incubated for at least 24 hours at 35° C. The plates were then evaluated for growth in each well. Controls included: medium sterility and negative control (medium and bacteria only).
# The procedure used to determine the antimicrobial activity of the compounds of the present invention was identical to the broth microdilution procedure described above with the exception of the preparation of the stock solutions. Stock solution at concentration of 40.96 mg/0.5 ml was prepared in DMSO for each of the compounds. A total of 8 two-fold dilutions were then made in DMSO. A volume of 2.5 μl of each dilution was delivered to appropriate wells. The initial doses used were (μg/ml): 512, 256, 128, 64, 32, 16, 8, and 4.
# (§2) A numerical code was used to evaluate the extent of growth as indicated below. • 0: absence of growth • 1: barely visible (faint) growth • 2: fair growth but less than the negative solvent control • 3: growth is equivalent to the negative solvent control.
# (§3) The lowest dose at which no visible growth is observed was determined to be the MIC value.
# MIC assays were performed with oxacillin and the four compounds. Each of the compounds was tested at the following 8 doses (μg/ml): 512, 256, 128, 64, 32, 16, 8, and 4. Oxacillin was tested at the following 8 doses (μg/ml): 64, 32, 16, 8, 4, 2, 1, and 0.5.
# [2] = tested on: methicillin resistant S. aureus from Stanford University Hospital (MRSA-SU); experiment: Matrix system: oxacillin plus β-lactamase inhibitor, MRSA-SU; type: cell-based; design: key to growth score: 0 = no growth, 3 = growth equal to negative solvent control
# Experimental: as §1, §2, §3
# The effect of the four compounds of the present invention on oxacillin resistance of the MRSA strains was determined using a matrix system. The β-lactamase inhibitors were tested at 5 doses against up to eleven concentrations of oxacillin. […] A 96-well microtiter plate was used for the matrix system. The procedure was identical to that described above for the MIC determination, with the exception that both oxacillin and one each of the β-lactamase inhibitors was added, 2.5 μl each, to the wells prior to addition of the test organisms.
# Matrix Study:Oxacillin and Compound FL201 with MRSA-SU
# Matrix Study: Oxacillin and Compound FL202 with MRSA-SU
smiles,measurement,setting,value
COC(=O)c1cc(B(O)O)cc([N+](=O)[O-])c1 [Compound F1202],MIC,"[1]; MRSA, 24 h",256 µg/mL
same,MIC (oxacillin),"[2]; Table 18, in presence of F1202 16 μg/ml",64 µg/mL
same,MIC (oxacillin),"[2]; Table 18, in presence of F1202 32 μg/ml",4 µg/mL
same,MIC (oxacillin),"[2]; Table 18, in presence of F1202 64 μg/ml",1 µg/mL
same,MIC (oxacillin),"[2]; Table 18, in presence of F1202 128 μg/ml",0.25 µg/mL
same,growth score,"[2]; Table 18, oxacillin 0, F1202 16 μg/ml",3
same,growth score,"[2]; Table 18, oxacillin 0, F1202 32 μg/ml",3
same,growth score,"[2]; Table 18, oxacillin 0, F1202 64 μg/ml",3
same,growth score,"[2]; Table 18, oxacillin 0, F1202 128 μg/ml",1
same,growth score,"[2]; Table 18, oxacillin 0, F1202 256 μg/ml",0
same,growth score,"[2]; Table 18, oxacillin 0.064 μg/ml + F1202 16 μg/ml",1
same,growth score,"[2]; Table 18, oxacillin 0.064 μg/ml + F1202 32 μg/ml",1
same,growth score,"[2]; Table 18, oxacillin 0.064 μg/ml + F1202 64 μg/ml",1
same,growth score,"[2]; Table 18, oxacillin 0.064 μg/ml + F1202 128 μg/ml",1
same,growth score,"[2]; Table 18, oxacillin 0.064 μg/ml + F1202 256 μg/ml",0
same,growth score,"[2]; Table 18, oxacillin 0.125 μg/ml + F1202 16 μg/ml",1
same,growth score,"[2]; Table 18, oxacillin 0.125 μg/ml + F1202 32 μg/ml",1
same,growth score,"[2]; Table 18, oxacillin 0.125 μg/ml + F1202 64 μg/ml",1
same,growth score,"[2]; Table 18, oxacillin 0.125 μg/ml + F1202 128 μg/ml",1
same,growth score,"[2]; Table 18, oxacillin 0.125 μg/ml + F1202 256 μg/ml",0
same,growth score,"[2]; Table 18, oxacillin 0.25 μg/ml + F1202 16 μg/ml",1
same,growth score,"[2]; Table 18, oxacillin 0.25 μg/ml + F1202 32 μg/ml",1
same,growth score,"[2]; Table 18, oxacillin 0.25 μg/ml + F1202 64 μg/ml",1
same,growth score,"[2]; Table 18, oxacillin 0.25 μg/ml + F1202 128 μg/ml",0
same,growth score,"[2]; Table 18, oxacillin 0.25 μg/ml + F1202 256 μg/ml",0
same,growth score,"[2]; Table 18, oxacillin 0.5 μg/ml + F1202 16 μg/ml",1
same,growth score,"[2]; Table 18, oxacillin 0.5 μg/ml + F1202 32 μg/ml",1
same,growth score,"[2]; Table 18, oxacillin 0.5 μg/ml + F1202 64 μg/ml",1
same,growth score,"[2]; Table 18, oxacillin 0.5 μg/ml + F1202 128 μg/ml",0
same,growth score,"[2]; Table 18, oxacillin 0.5 μg/ml + F1202 256 μg/ml",0
same,growth score,"[2]; Table 18, oxacillin 1 μg/ml + F1202 16 μg/ml",1
same,growth score,"[2]; Table 18, oxacillin 1 μg/ml + F1202 32 μg/ml",1
same,growth score,"[2]; Table 18, oxacillin 1 μg/ml + F1202 64 μg/ml",0
same,growth score,"[2]; Table 18, oxacillin 1 μg/ml + F1202 128 μg/ml",0
same,growth score,"[2]; Table 18, oxacillin 1 μg/ml + F1202 256 μg/ml",0
same,growth score,"[2]; Table 18, oxacillin 2 μg/ml + F1202 16 μg/ml",1
same,growth score,"[2]; Table 18, oxacillin 2 μg/ml + F1202 32 μg/ml",1
same,growth score,"[2]; Table 18, oxacillin 2 μg/ml + F1202 64 μg/ml",0
same,growth score,"[2]; Table 18, oxacillin 2 μg/ml + F1202 128 μg/ml",0
same,growth score,"[2]; Table 18, oxacillin 2 μg/ml + F1202 256 μg/ml",0
same,growth score,"[2]; Table 18, oxacillin 4 μg/ml + F1202 16 μg/ml",1
same,growth score,"[2]; Table 18, oxacillin 4 μg/ml + F1202 32 μg/ml",0
same,growth score,"[2]; Table 18, oxacillin 4 μg/ml + F1202 64 μg/ml",0
same,growth score,"[2]; Table 18, oxacillin 4 μg/ml + F1202 128 μg/ml",0
same,growth score,"[2]; Table 18, oxacillin 4 μg/ml + F1202 256 μg/ml",0
same,growth score,"[2]; Table 18, oxacillin 16 μg/ml + F1202 16 μg/ml",1
same,growth score,"[2]; Table 18, oxacillin 16 μg/ml + F1202 32 μg/ml",0
same,growth score,"[2]; Table 18, oxacillin 16 μg/ml + F1202 64 μg/ml",0
same,growth score,"[2]; Table 18, oxacillin 16 μg/ml + F1202 128 μg/ml",0
same,growth score,"[2]; Table 18, oxacillin 16 μg/ml + F1202 256 μg/ml",0
same,growth score,"[2]; Table 18, oxacillin 64 μg/ml + F1202 16 μg/ml",0
same,growth score,"[2]; Table 18, oxacillin 64 μg/ml + F1202 32 μg/ml",0
same,growth score,"[2]; Table 18, oxacillin 64 μg/ml + F1202 64 μg/ml",0
same,growth score,"[2]; Table 18, oxacillin 64 μg/ml + F1202 128 μg/ml",0
same,growth score,"[2]; Table 18, oxacillin 64 μg/ml + F1202 256 μg/ml",0
same,growth score,"[2]; Table 18, oxacillin 128 μg/ml + F1202 16 μg/ml",0
same,growth score,"[2]; Table 18, oxacillin 128 μg/ml + F1202 32 μg/ml",0
same,growth score,"[2]; Table 18, oxacillin 128 μg/ml + F1202 64 μg/ml",0
same,growth score,"[2]; Table 18, oxacillin 128 μg/ml + F1202 128 μg/ml",0
same,growth score,"[2]; Table 18, oxacillin 128 μg/ml + F1202 256 μg/ml",0
same,growth score,"[2]; Table 18, oxacillin 256 μg/ml + F1202 16 μg/ml",0
same,growth score,"[2]; Table 18, oxacillin 256 μg/ml + F1202 32 μg/ml",0
same,growth score,"[2]; Table 18, oxacillin 256 μg/ml + F1202 64 μg/ml",0
same,growth score,"[2]; Table 18, oxacillin 256 μg/ml + F1202 128 μg/ml",0
same,growth score,"[2]; Table 18, oxacillin 256 μg/ml + F1202 256 μg/ml",0
"Cc1onc(-c2ccccc2)c1C(=O)N[C@@H]1C(=O)N2[C@@H]1SC(C)(C)[C@@H]2C(=O)O [Oxacillin, reference compound]",MIC,"[1]; MRSA-SU, substance alone, at least 24 hours at 35° C., read-out: MIC",> 64 µg/mL
same,MIC,"[2]; Staphylococcus aureus, 24 h, Table 17, oxacillin alone, F1201 0",256 µg/mL
same,growth score,"[2]; Table 17, oxacillin 0.064 μg/ml, F1201 0",3
same,growth score,"[2]; Table 17, oxacillin 0.125 μg/ml, F1201 0",3
same,growth score,"[2]; Table 17, oxacillin 0.25 μg/ml, F1201 0",3
same,growth score,"[2]; Table 17, oxacillin 0.5 μg/ml, F1201 0",3
same,growth score,"[2]; Table 17, oxacillin 1 μg/ml, F1201 0",3
same,growth score,"[2]; Table 17, oxacillin 2 μg/ml, F1201 0",3
same,growth score,"[2]; Table 17, oxacillin 4 μg/ml, F1201 0",3
same,growth score,"[2]; Table 17, oxacillin 16 μg/ml, F1201 0",3
same,growth score,"[2]; Table 17, oxacillin 64 μg/ml, F1201 0",2
same,growth score,"[2]; Table 17, oxacillin 128 μg/ml, F1201 0",1
same,growth score,"[2]; Table 17, oxacillin 256 μg/ml, F1201 0",0
same,growth score,"[2]; Table 18, oxacillin 0.064 μg/ml, F1202 0",3
same,growth score,"[2]; Table 18, oxacillin 0.125 μg/ml, F1202 0",3
same,growth score,"[2]; Table 18, oxacillin 0.25 μg/ml, F1202 0",3
same,growth score,"[2]; Table 18, oxacillin 0.5 μg/ml, F1202 0",3
same,growth score,"[2]; Table 18, oxacillin 1 μg/ml, F1202 0",3
same,growth score,"[2]; Table 18, oxacillin 2 μg/ml, F1202 0",3
same,growth score,"[2]; Table 18, oxacillin 4 μg/ml, F1202 0",3
same,growth score,"[2]; Table 18, oxacillin 16 μg/ml, F1202 0",3
same,growth score,"[2]; Table 18, oxacillin 64 μg/ml, F1202 0",2
same,growth score,"[2]; Table 18, oxacillin 128 μg/ml, F1202 0",2
same,growth score,"[2]; Table 18, oxacillin 256 μg/ml, F1202 0",0
same,MIC (oxacillin),"[2]; Table 18, oxacillin alone, F1202 0",256 µg/mL
